Laboratory results: patent US7022319B1, “Vectors carrying therapeutic genes encoding antimicrobial peptides for gene therapy” (GSF - Forschungszentrum fuer Umwelt und Gesundheit GmbH, priority 1995, dated 2006)

Tests used:
[1] = tested on: human bladder carcinoma derived cell line, EJ; test: Tumorigenicity in nude mice of EJ cell clones carrying melittin or cecropin expression constructs; assay type: in vivo; details: EJ cell clones carrying the gene, injected into nude mice; FIGS. 9A-9G and 10A-10F
Excerpt: EJ cells were transfected with p125.CercA and the clones expressing neomycin resistance were isolated. Six clones were isolated: Cecropin A1.4, Cecropin A1.7, Cecropin A1.8, Cecropin A10.3, Cecropin A10.4, and Cecropin A10.8.
Similarly Ej cells were transfected with pBAGpMel and pBagppMel and the clones expressing neomycin resistance were isolated. Three clones containing the premelittin gene were isolated: Pre Melittin 1, Pre Melittin 4, and Pre Melittin 6. Two clones containing prepromelittin were isolated: Pre Pro Melittin 1, and Pre Pro Melittin 5.
The human bladder carcinoma derived cell line, EJ, gives tumours upon injection into immuno compromised nude mice which grow progressively larger (FIGS. 9A–9G). The stable clones of Ej cells carrying the melittin or cecropin expression constructs obtained as described above were tested for their tumorigenicity in nude ice.

HIV LTR = test: HIV LTR-luciferase reporter (HIV-luc) supertransfected into EJ derived cell clones, with or without Tat; assay type: cell-based; details: in the presence of Tat, FIGS. 11 and 12
Excerpt: EJ derived cell clones carrying the melittin or cecropin expression vector or the parental. BAG vector, not carrying a therapeutic gene, were supertransfected with an indicator construct carrying the HIV LTR (and thus the HIV promoter) linked to a firefly luciferase reporter gene (HIV-luc) in the absence or presence of a separate construct expressing Tat. In the absence of Tat there was little luciferase activity detectable from the HIV-luc construct in all cell clones as expected since the HIV promoter requires Tat for its activity. […] Thus the production of HIV from infected cells will be inhibited by the antimicrobial peptide gene carrying therapeutic-retroviral vector. This effect is expected to lead to a lack of virus production from HIV infected cells.

MMTV LTR = test: MMTV LTR-luciferase reporter supertransfected into cells carrying PreProCecropin or PreProMelittin; assay type: cell-based, Mouse Mammary Tumour Virus; details: two different MMTV LTRs; gene under control of an MLV promoter; FIGS. 13A-13B
Excerpt: A similar experiment to that of FIGS. 11 and 12 can be seen in FIGS. 13A–13B whereby two different MMTV LTR's controlling the expression of a luciferase reporter gene (Wintersberger et al., Proc. Natl. Acad. Sci. USA, 92:2745–2749) were separately supertransfected into cells carrying either PreProCecropin or PreProMelittin under control of an MLV promoter.

bacteria = details: cited from earlier work
mammalian cells = details: cited from earlier work
cancer = details: purified peptide given to cells in culture; cited from earlier work
HIV = details: purified peptide given to cells in culture; cited from earlier work
[2] = tested on: variety of tumour cell lines; details: cited from earlier work

## cecropin
[1]
  rate of tumour growth in mice: reduced rate of tumour growth
HIV LTR
  luciferase expression from HIV-luc: little luciferase expression
MMTV LTR
  effect on expression from MMTV LTR luciferase reporter: downregulatory effect

## Cecropin A
bacteria
  antibacterial activity: specific antibacterial activity
Mammalian cells
  ill effects for mammalian cells: without any apparent ill effects

## CC[C@H](C)[C@H](NC(=O)CN)C(=O)NCC(=O)N[C@@H](C)C(=O)N[C@H](C(=O)N[C@@H](CC(C)C)C(=O)N[C@@H](CCCCN)C(=O)N[C@H](C(=O)N[C@@H](CC(C)C)C(=O)N[C@H](C(=O)N[C@H](C(=O)NCC(=O)N[C@@H](CC(C)C)C(=O)N1CCC[C@H]1C(=O)N[C@@H](C)C(=O)N[C@@H](CC(C)C)C(=O)N[C@H](C(=O)N[C@@H](CO)C(=O)N[C@@H](Cc1c[nH]c2ccccc12)C(=O)N[C@H](C(=O)N[C@@H](CCCCN)C(=O)N[C@@H](CCCNC(=N)N)C(=O)N[C@@H](CCCCN)C(=O)N[C@@H](CCCNC(=N)N)C(=O)N[C@@H](CCC(N)=O)C(=O)N[C@@H](CCC(N)=O)C(N)=O)[C@@H](C)CC)[C@@H](C)CC)[C@@H](C)O)[C@@H](C)O)C(C)C)C(C)C [melittin]
cancer
  anti-cancer activity: selective anti-cancer
HIV
  anti-HIV activity: anti-HIV activity

## Cecropin B
bacteria
  antibacterial activity: specific antibacterial activity
Mammalian cells
  ill effects for mammalian cells: without any apparent ill effects
[2]
  anticancer activity against tumour cell lines: anticancer activity
